# In patent US10799505B2, “Crystalline form of (S)-N-(5-((R)-2-(2,5-difluorophenyl)-pyrrolidin-1-yl)-pyrazolo[1,5-A]pyrimidin-3-yl)-3-hydroxypyrrolidine-1-carboxamide hydrogen sulfate” (Array BioPharma, Inc., priority 2014, dated 2020):
# Where a name gives a salt, the structure may show the parent alone.
# What was measured:
# [1] = tested on: HCC78 cells expressing SLC34A2-ROS1 fusion protein; details: HCC78 cell line
# Procedure: (§3) All proliferation assays were performed in media supplemented with 5% FBS as previously described using Cell Titer 96 MTS (Promega) (Bouhana et al., EORTC-NCI-AACR 26th Symposium on Molecular Targets and Cancer Therapeutics, Barcelona, Spain 2014). Cells were seeded 500-2000 cells/well and treated for 72 hours at the drug concentrations described on each graph. Each assay was performed in triplicate in at least 3 independent biological replicates. Data were plotted and IC50 values calculated using GraphPad software.
# [2] = Phase 1 dose escalation study, safety; details: for dose limiting toxicity: one patient
# Procedure: In patients with measurable disease, efficacy is assessed per RECIST 1.1 criteria.
# Response is measured by RECIST Criteria, version 1.1. Serum is collected for pharmacokinetic analysis on Cycle 1 Day 1 and Day 8. Safety information is collected on all patients and the definition of dose-limiting toxicity applies to adverse events regardless of relationship to investigational product.
# [3] = Phase 1 dose escalation study, pharmacokinetics; format: in vivo, human; details: oral, patients
# [4] = Stability on aluminum slide at 40° Celsius/75% RH; format: physicochemical; details: I-HS 10 days; HCl after 1 hour; HBr after 2 weeks; mesylate overnight
# TRKA/B/C = assay: Target inhibition judged from unbound drug levels in Phase 1 study; format: in vivo, human; details: all dose levels
# [5] = tested on: solid tumors with NTRK gene fusions; assay: Phase 1 study, tumor response (RECIST 1.1) in patients with NTRK fusions; format: in vivo, human
# Procedure: Three of the 23 patients harbored NTRK-fusions and were treated at either 100 or 150 mg BID.
# [6] = tested on: KM12 colorectal cancer cells harboring TPM3-NTRK1 fusion; assay: Cell proliferation assay (Cell Titer 96 MTS), KM12; format: cell-based; details: Homo sapiens, KM12, 72 h, read-out: IC50, cell proliferation
# Procedure: (§4) The KM12 cell line is a colorectal cancer cell line harboring the TPM3-NTRK1 fusion (Vaishnavi et al., Nature Med. 19:1469-1472, 2013). The MO-91 cell line is derived from an acute myeloid leukemia patient harboring the ETV6-NTRK3 fusion (Taipale et al., Nature Biotech. 31:630-637, 2013).
# as §3
# [7] = tested on: xenograph (human) tumor derived from KM12 cell line; assay: Xenograft tumor growth in mice, KM12; format: in vivo; details: 60 or 200 mg/kg daily oral
# Text: (§1) The three different cancer cell lines, the CUTO-3F cell line, the KM12 cell line, and the MO-91 cell line, each express a different Trk gene fusion. […] Following implantation of one of these three different xenograph (human) tumors in mice, the change in the volume of each tumor was monitored.
# [8] = Accelerated stability, open vials in LDPE bag, 40° C./75% RH, five weeks; format: physicochemical
# Procedure: Upon removal from the chamber, the samples were physically characterized by appearance, KF, TGA, DSC, XRD and PLM. The samples were also analyzed by HPLC for chromatographic purity, chiral integrity and potency. Where applicable, the data presented in the stability portion also includes the original T=0 data for comparison purposes. The data can be seen in Tables 25-29 and FIGS. 40-44.
# [9] = tested on: undifferentiated sarcoma with LMNA-NTRK1 fusion; assay: Phase 1 trial, patient with undifferentiated sarcoma (case report); format: in vivo, human; details: one patient
# Text: The patient started cycle 1 day 1 three days later. The patient was seen weekly for pharmacokinetic and safety analysis.
# TRKA-SHC1 complexes = assay: TRK-SHC1 proximity ligation assay in CUTO-3 cells; format: cell-based, human; details: 100 nM, 2 hours, vs DMSO
# Procedure: Cells were seeded onto glass coverslips (in a 48 well plate) or chamber slides at 25-75 k cells/well. Cells were treated with the indicated doses and times then fixed for 15 minutes by shaking at room temperature in 4% paraformaldehyde. The cells were rinsed twice in PBS, and then the Duolink® in situ PLA® kit from SigmaAldrich in mouse/rabbit (Red) was used according to the manufacturer's protocol (catalog # DUO92101). The antibody concentrations were optimized using immunofluorescence prior to PLA experiments. The FFPE tissue PLAs from mice or patients were prepared as described in histology. Additionally, samples were treated with 300 mM glycine for 15 minutes prior to the blocking step, otherwise the assay was performed according to the manufacturer's protocol. The cells were mounted using Prolong® gold anti-fade reagent (with DAPI) and cured overnight prior to imaging. […] The following antibodies were used: TRK (C17F1) and ALK (D5F3) from Cell Signaling, SHC1 from Novus, and Grb2 (610111) from BD.
# [10] = tested on: xenograph (human) tumor derived from MO-91 cell line; assay: Xenograft tumor growth in mice, MO-91; format: in vivo; details: MO-91 xenograft, 60 or 200 mg/kg daily oral
# Text: as §1
# [11] = tested on: xenograph (human) tumor derived from CUTO-3F cell line; assay: Xenograft tumor growth in mice, CUTO-3F; format: in vivo; details: CUTO-3F xenograft, 60 or 200 mg/kg daily oral
# Text: as §1
# [12] = tested on: CUTO-3F lung adenocarcinoma cells harboring MPRIP-NTRK1 fusion; assay: Cell proliferation assay (Cell Titer 96 MTS), CUTO-3F; format: cell-based; details: Homo sapiens, 72 h, read-out: IC50, cell proliferation
# Procedure: as §4, §3
# [13] = tested on: MPRIP-TRKA oncoprotein and ERK1/2; assay: Immunoblot of phosphorylation in CUTO-3F cells; format: cell-based, human; details: low doses, 2 hours
# Text: (§2) Briefly, cells were lysed in RIPA buffer with Halt Protease and Phosphatase Inhibitor Cocktail (Thermo Scientific) and diluted in loading buffer (LI-COR Biosciences). The membranes were scanned and analyzed using the Odyssey Imaging System and software (LI-COR). The following antibodies were used from Cell Signaling: pTRK Y490 (rabbit polyclonal, #9141), pERK1/2 XP T202/Y204 (#9101), total ERK1/2, pAKT S473 (rabbit mAb, #4060), and total AKT mouse clone D3A7 (#2920). TRK (C-14) rabbit polyclonal antibody was purchased from Santa Cruz Biotechnology. GAPDH (MAB374) and pTYR (4G10) are from Millipore.
# [14] = tested on: TPM3-TRKA, pAKT, and pERK1/2; assay: Immunoblot of phosphorylation in KM12 cells; format: cell-based, human; details: low doses, 2 hours
# Text: as §2
# [15] = Dynamic vapor sorption (DVS-1 system); format: physicochemical
# Procedure: For the DVS measurement a sample of crystalline form (I-HS) was cycled through changing humidity conditions to determine its hygroscopicity. The sample was analyzed using a Surface Measurement System DVS-1 Dynamic Vapor Sorption System. […] Data was collected in 1 minute intervals. Nitrogen was used as the carrier gas. […] After completion of the sorption cycle, the sample was dried using the same procedure, but all the way down to 0% RH and finally taken back to the starting point of 20% RH. The weight change during the sorption/desorption cycles were plotted, allowing for the hygroscopic nature of the sample to be determined.
# [16] = tested on: TEL-TRKC oncoprotein, pAKT, and pERK1/2; assay: Immunoblot of phosphorylation in MO-91 cells; format: cell-based, human; details: low doses, 2 hours
# Text: as §2
# [17] = tested on: MO-91 acute myeloid leukemia cells harboring ETV6-NTRK3 fusion; assay: Cell proliferation assay (Cell Titer 96 MTS), MO-91; format: cell-based; details: Homo sapiens, MO-91, 72 h, read-out: IC50, cell proliferation
# Procedure: as §4, §3
# [18] = Dynamic vapor sorption / humidity exposure (IGAsorp, 25° C.); format: physicochemical; details: for hygroscopicity: DVS, hydrogen sulfate
# Procedure: • 1. The hygroscopicity was studied at 25° C. using an IGAsorp analyzer. • 2. About 15 mg of sample was placed in a tared mesh sample holder at an initial ambient room humidity setting of ˜35%. • 3. A total wet/dry nitrogen flow rate of 250 cc/min is used throughout the study. • 4. […] The maximum time allowed at any one humidity set point was 120 min. The sample was maintained under dry N2 after the cycle was completed. Percent weight gain was calculated based on the dry weight basis.
# [19] = 23 patients, 50 mg QD-150 mg BID
smiles,measurement,setting,value
"O=C(Nc1cnn2ccc(N3CCC[C@@H]3c3cc(F)ccc3F)nc12)N1CC[C@H](O)C1 [crystalline form (I-HS), (S)—N-(5-((R)-2-(2,5-difluorophenyl)-pyrrolidin-1-yl)-pyrazolo[1,5-a]pyrimidin-3-yl)-3-hydroxypyrrolidine-1-carboxamide hydrogen sulfate]",inhibition of cellular proliferation,[1],did not inhibit
same,"Grade 1 and 2 anemia, frequency",[2]; 23 patients,22%
same,"Grade 1 and 2 dizziness, frequency",[2]; 23 patients,26%
same,"Grade 1 and 2 fatigue, frequency",[2]; 23 patients,35%
same,MTD,[2]; [19],has not been reached
same,tolerability,[2]; [19],well tolerated
same,dose limiting toxicity,[2]; Dose Level 100 mg BID,"delirium, grade 3 unrelated"
same,dose limiting toxicity,[2]; Dose Level 150 mg BID,"elevated AST, grade 3"
same,adverse events attributed to drug,"[2]; sarcoma patient, after four months of dosing",did not have any adverse events
same,drug-related adverse events,"[2]; sarcoma patient, first 4-week period",No drug-related adverse events were noted
same,exposure versus dose,[3],increased in approximate proportion with dose
same,time to maximum plasma concentrations following dosing,[3],30 to 60 min
same,Stability at 40° Celsius/75% RH (aluminum slide),[4],No form change
same,inhibition of TRKA/B/C at peak concentrations,TRKA/B/C,approximately 98%
same,response (RECIST 1.1) in three NTRK-fusion patients,[5]; 100 or 150 mg BID,partial response
same,tumor decrease,"[5]; c-kit-negative GIST, ETV6-NTRK3 fusion, 2 cycles+",30%
same,tumor decrease,"[5]; mammary analogue secretory carcinoma, ETV6-NTRK3 fusion, 2 cycles+",64%
same,tumor decrease,"[5]; undifferentiated sarcoma, LMNA-NTRK1 fusion, 7 cycles+",59%
same,IC50,[6],< 10 nM
same,tumor growth (change in volume),[7],"effectively halt the growth, or decrease the rate of growth"
same,Appearance,"[8]; 40° C./75% RH, 5 wks",Orange Powder
same,Assay (HPLC),"[8]; 40° C./75% RH, 5 wks",79.6%
same,Chiral Potency (HPLC),"[8]; 40° C./75% RH, 5 wks",99.6%
same,KF (water content),"[8]; 40° C./75% RH, 5 wks",0.21 w/w %
same,"Peak Area Percent, RRT 0.793","[8]; 40° C./75% RH, 5 wks",0.07
same,"Peak Area Percent, RRT 0.863","[8]; 40° C./75% RH, 5 wks",0.00
same,"Peak Area Percent, RRT 0.981","[8]; 40° C./75% RH, 5 wks",0.00
same,"Peak Area Percent, RRT 1.000","[8]; 40° C./75% RH, 5 wks",99.93
same,"Peak Area Percent, RRT 1.535","[8]; 40° C./75% RH, 5 wks",0.00
same,Total Impurities (HPLC),"[8]; 40° C./75% RH, 5 wks",0.07%
same,change of API chemical purity,"[8]; 40° C./75% RH, five weeks",did not change significantly
same,Appearance,[8]; time point 0 wks,Orange Powder
same,Assay (HPLC),[8]; time point 0 wks,79.4%
same,Chiral Potency (HPLC),[8]; time point 0 wks,99.6%
same,KF (water content),[8]; time point 0 wks,0.28 w/w %
same,"Peak Area Percent, RRT 0.793",[8]; time point 0 wks,0.07
same,"Peak Area Percent, RRT 0.863",[8]; time point 0 wks,0.00
same,"Peak Area Percent, RRT 0.981",[8]; time point 0 wks,0.00
same,"Peak Area Percent, RRT 1.000",[8]; time point 0 wks,99.86
same,"Peak Area Percent, RRT 1.535",[8]; time point 0 wks,0.07
same,Total Impurities (HPLC),[8]; time point 0 wks,0.14%
same,response by RECIST 1.1,"[9]; 100 mg twice daily, CT before cycle 2 and cycle 3",partial response
same,oxygen saturation on room air,"[9]; on treatment, baseline 90% with 5 L supplemental oxygen",97%
same,CA125 tumor marker levels,[9]; over cycle 1,normalized
same,TRKA-SHC1 complexes (PLA signal),TRKA-SHC1 complexes,disruption of TRKA-SHC1 complexes
same,tumor growth (change in volume),[10],"effectively halt the growth, or decrease the rate of growth"
same,tumor growth (change in volume),[11],"effectively halt the growth, or decrease the rate of growth"
same,IC50,[12],< 100 nM
same,phosphorylation of MPRIP-TRKA and ERK1/2,[13],inhibition of phosphorylation
same,"phosphorylation of TPM3-TRKA, pAKT, pERK1/2",[14],inhibition of the phorphorylation
same,change in form during DVS (post-DVS XRPD),[15],no change
same,hygroscopicity,"[15]; DVS isotherm, FIG. 5",non-hygroscopic
same,DVS (outcome),[15]; HCl: at 50-60% RH,RH No change
same,DVS weight gain,[15]; at 80% RH,~1% gain at 80%
same,DVS weight gain,[15]; at 95% RH,A 2% gain at 95%
same,increase in mass during sorption cycle,[15]; between 0% and 90% RH,about 1.7%
same,"phosphorylation of TEL-TRKC, pAKT, pERK1/2",[16],inhibition in the phosphorylation
same,IC50,[17],< 10 nM
same,hygroscopicity,[18],non-hygroscopic
same,hygroscopicity,[18]; listed as Crystalline form (I-HS),not hygroscopic
same,mass gained in DVS,[18]; at 80% RH,1%
